{"source": "patent US12576163B2", "about": "“Fluorescent contrast agent with targeting function, and preparation method and use thereof” (priority 2022, dated 2026)", "molecules": {"B1": {"name": "IL-4: interleukin-4, M2 macrophage inducer (protein, UniProt P05112 25-153, looked up)", "Interleukin-4": "HKCDITLQEIIKTLNSLTEQKTLCTELTVTDIFAASKNTTEKETFCRAATVLRQFYSHHEKDTRCLGATAQQFHRHKQLIRFLKRLDRNLWGLAGLNSCPVKEANQSTLENFLERLKTIMREKYSKCSS"}}, "key": {"[1]": {"assay": "UV-VIS and fluorescence spectroscopy", "format": "physicochemical", "conditions": "UV-VIS spectrum", "description": "A size of the contrast agent was detected with the Zetasizer nano-ZS. 10 μL of each of MR780 NPs, FITC-MR780 NPs, and FITC-DSPC NPs was taken and added dropwise on a mesh, air-dried, stained with phosphotungstic acid (10 μL, 3.0%), then washed with deionized water, and air-dried. Morphological images of the mannose contrast agents were acquired through high-resolution transmission electron microscopy (HRTEM). Since MR780 NPs need to emit reduced glutathione-responsive fluorescence in a tumor microenvironment, it must be ensured that MR780 NPs can stably restore the fluorescence signal after reacting with reduced glutathione. 10 μL of MR780 NPs was thoroughly mixed with 10 mM reduced glutathione, and a resulting mixture was shaken at room temperature in the dark; and the fluorescence restoration of MR780 NPs in each group was tested at 10 min, 1 h, 2 h, and 4 h. The UV-VIS spectroscopy and fluorescence spectroscopy were conducted respectively on a UV-VIS spectrophotometer and a fluorescence spectrophotometer."}, "[2]": {"test_system": "induced RAW264.7 cells (CD206)", "conditions": "pre-blocking 2 h at 10-100 mg/mL, then FITC-MR780 NPs 40 μg/mL 2 h; FCM", "procedure": "After 2 h of co-incubation, the DMEM was changed, FITC-MR780 NPs 40 μg/mL was added in each group, and then co-incubation was conducted for 2 h. A fluorescence signal of FITC in cells of each group was determined by FCM.\n2 h before the blocking experiment, free mannose was added in advance at different concentrations, then FITC-MR780 NPs were added, and then co-incubation was conducted for 2 h. An intracellular fluorescence intensity of FITC was determined by FCM."}, "[3]": {"test_system": "CD206 on a surface of RAW264.7 cells", "assay": "Induction of macrophage differentiation, CD206 expression by FCM", "format": "cell-based, mouse", "conditions": "24 h with inducer (IL-4 20 ng/mL; LPS 100 ng/mL)", "description": "RAW264.7 cells at a logarithmic growth phase were plated in a 6-well plate at a density of 1×10^5 cells/mL, then a DMEM was added at 2 mL/well, the plate was incubated overnight, and then interleukin-4 (IL-4) was added to the culture at a final concentration of 20 ng/mL. The IL-4 was an M2 macrophage inducer. In a control group, an M1 macrophage inducer lipopolysaccharide (LPS) was added to the culture at a final concentration of 100 ng/mL and then incubated for 24 h.\nThe expression of CD206 on a surface of RAW264.7 cells before and after induction was determined by FCM. Cells were digested and centrifuged, 0.5 μg of mouse CD16/32 monoclonal antibody (mAb) was added, and a resulting mixture was incubated at room temperature for 10 min. Then 0.5 mL of a 1× fixation buffer was added, a resulting mixture was incubated in the dark for 20 min and then centrifuged at 350 g for 5 min, and a resulting supernatant was discarded. 2 mL of a membrane disruption solution was added, and a resulting suspension was centrifuged at 350 g for 5 min; and the operation was repeated once. […] 200 μL of PBS was added to resuspend the cells, and the expression of CD206 on a cell surface in each of the two groups was detected by FCM."}}}
{"molecule": "CCCN1/C(=C/C=C2\\CCCC(/C=C/C3=[N+](CCC)c4ccccc4C3(C)C)=C2Cl)C(C)(C)c2ccccc21.[I-]", "note": "[IR780]", "values": [{"measurement": "UV-VIS maximum absorbance / maximum absorption peak", "setting": "[1]", "value": 780, "unit": "nm"}]}
{"molecule": "Nc1ccc(O[C@H]2O[C@H](CO)[C@@H](O)[C@H](O)[C@@H]2O)cc1", "note": "[free mannose, 4-aminophenyl-α-D-mannopyranoside]", "values": [{"measurement": "phagocytosis of cells for FITC-MR780 NPs after pre-blocking", "setting": "[2]", "value": "decreases significantly"}]}
{"molecule": "B1", "values": [{"measurement": "expression of CD206", "setting": "[3]", "value": "81.22±0.64", "unit": "%"}]}
